In paper PMC8219027, “A small-molecule inhibitor of the BRCA2-RAD51 interaction modulates RAD51 assembly and potentiates DNA damage-induced cell death” (Cell Chemical Biology, 2021):

Key:
[1] = test system: HCT116 colon carcinoma cells; experiment: Cell-cycle profiling by flow cytometry (propidium iodide); assay type: cell-based, human; conditions: HCT116, 20 μM CAM833 and 3 Gy IR
From the text: Genetic inactivation of RAD51 enhances cellular sensitivity to ionizing radiation, accompanied by cell-cycle arrest at the G2 checkpoint for DNA damage ([Sonoda et al., 1998]; [Su et al., 2008]). We hypothesized that similar effects would be triggered by the exposure of cells to CAM833. […] Over time, there is a drop in the percentage of cells with 4N DNA in both treated and control groups. However, whereas in the control the percentage of cells in the apoptotic subG1 fraction remains below 5% throughout, in the compound-treated cells this rises progressively to peak at 15% at 48 hours (Figure 5D).
Propidium iodide staining solution (PI solution) was used at the following final concentrations: 200 ug/ml RNAase A (Sigma Aldrich, cat# 10109169001), 0.1% Triton-X 100 (v/v) and 20 ug/ml of propidium iodide solution diluted in 1x PBS. HCT116 cells were grown in 6-well plates in a total volume of 2 ml and treated with either test compound or DMSO control for the designated time. After treatment, medium was collected from the cells which were then washed in 1x PBS then removed from the plastic by the addition of in 500 μl Trypsin/EDTA until cells were monodispersed. The trypsin was neutralised by the removed media and the cell suspension was spun at 1000 rpm for 5 minutes. […] Cells were then counted and analysed using a Becton Dickinson LSR II cytometer and FCS Express software.

PANC1 = experiment: cells; conditions: Homo sapiens, PANC-1, read-out: Absolute EC50, growth inhibition
Caco-2 = Caco-2 permeability; assay type: in vitro ADME; conditions: summary of Table S1
Caco-2 permeability = assay type: in vitro ADME; conditions: human, Caco-2
CYP450 3A4 = target: T1, CYP450 3A4 (Homo sapiens, UniProt P08684); experiment: CYP450 inhibition; assay type: in vitro ADME
T1 construct: Cyprotex (contract data)

[2] = Microsomal intrinsic clearance; conditions: mouse, mouse microsomes
HFL-1 = experiment: cells; conditions: Homo sapiens, HFL1, read-out: Absolute EC50, growth inhibition
T24/83 = experiment: cells; conditions: Homo sapiens, T24/83, read-out: Absolute EC50, growth inhibition
hERG = hERG (Homo sapiens, UniProt Q12809); experiment: hERG electrophysiology (whole-cell voltage-clamping); conditions: @ 10 uM, whole-cell voltage-clamping in mammalian cells
Calu3 = experiment: cells; conditions: Homo sapiens, Calu-3, read-out: Absolute EC50, growth inhibition
[3] = Microsomal intrinsic clearance; conditions: human, human microsomes
SCaBER = experiment: cells; conditions: Homo sapiens, read-out: Absolute EC50, growth inhibition
CYP450 2D6 = target: T2, CYP450 2D6 (Homo sapiens, UniProt P10635); experiment: CYP450 inhibition; assay type: in vitro ADME
T2 construct: Cyprotex (contract data)

U87 = experiment: cells; conditions: Homo sapiens, U-87 MG, read-out: Absolute EC50, growth inhibition
U20S = experiment: cells; conditions: Homo sapiens, read-out: Absolute EC50, growth inhibition
LN229 = experiment: cells; conditions: Homo sapiens, LN-229, read-out: Absolute EC50, growth inhibition
BT20 = experiment: cells; conditions: Homo sapiens, BT-20, read-out: Absolute EC50, growth inhibition
A549 = experiment: cells; conditions: Homo sapiens, A549, read-out: Absolute EC50, growth inhibition
HL-60 = experiment: cells; conditions: Homo sapiens, HL-60, read-out: Absolute EC50, growth inhibition
SW756 = experiment: cells; conditions: Homo sapiens, SW756, read-out: Absolute EC50, growth inhibition
Mia-pa-ca2 = experiment: cells; conditions: Homo sapiens, MIA PaCa-2, read-out: Absolute EC50, growth inhibition
NCI-H209 = experiment: cells; conditions: Homo sapiens, NCI-H209, read-out: Absolute EC50, growth inhibition

T1 sequence (P08684 whole entry): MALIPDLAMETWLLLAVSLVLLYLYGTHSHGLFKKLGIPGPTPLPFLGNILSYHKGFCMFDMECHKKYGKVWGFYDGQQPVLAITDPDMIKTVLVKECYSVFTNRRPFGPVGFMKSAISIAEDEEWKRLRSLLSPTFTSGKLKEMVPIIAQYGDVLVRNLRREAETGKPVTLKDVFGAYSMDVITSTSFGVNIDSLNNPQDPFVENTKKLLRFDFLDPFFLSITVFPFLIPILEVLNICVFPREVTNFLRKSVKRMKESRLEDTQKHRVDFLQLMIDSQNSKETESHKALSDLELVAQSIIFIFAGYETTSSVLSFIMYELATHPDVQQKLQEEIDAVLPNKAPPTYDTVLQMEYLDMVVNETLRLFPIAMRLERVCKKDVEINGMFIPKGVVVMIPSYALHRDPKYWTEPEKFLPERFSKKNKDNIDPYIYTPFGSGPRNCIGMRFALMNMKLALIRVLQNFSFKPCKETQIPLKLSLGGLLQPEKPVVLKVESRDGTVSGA
Sequence of hERG (Q12809 whole entry): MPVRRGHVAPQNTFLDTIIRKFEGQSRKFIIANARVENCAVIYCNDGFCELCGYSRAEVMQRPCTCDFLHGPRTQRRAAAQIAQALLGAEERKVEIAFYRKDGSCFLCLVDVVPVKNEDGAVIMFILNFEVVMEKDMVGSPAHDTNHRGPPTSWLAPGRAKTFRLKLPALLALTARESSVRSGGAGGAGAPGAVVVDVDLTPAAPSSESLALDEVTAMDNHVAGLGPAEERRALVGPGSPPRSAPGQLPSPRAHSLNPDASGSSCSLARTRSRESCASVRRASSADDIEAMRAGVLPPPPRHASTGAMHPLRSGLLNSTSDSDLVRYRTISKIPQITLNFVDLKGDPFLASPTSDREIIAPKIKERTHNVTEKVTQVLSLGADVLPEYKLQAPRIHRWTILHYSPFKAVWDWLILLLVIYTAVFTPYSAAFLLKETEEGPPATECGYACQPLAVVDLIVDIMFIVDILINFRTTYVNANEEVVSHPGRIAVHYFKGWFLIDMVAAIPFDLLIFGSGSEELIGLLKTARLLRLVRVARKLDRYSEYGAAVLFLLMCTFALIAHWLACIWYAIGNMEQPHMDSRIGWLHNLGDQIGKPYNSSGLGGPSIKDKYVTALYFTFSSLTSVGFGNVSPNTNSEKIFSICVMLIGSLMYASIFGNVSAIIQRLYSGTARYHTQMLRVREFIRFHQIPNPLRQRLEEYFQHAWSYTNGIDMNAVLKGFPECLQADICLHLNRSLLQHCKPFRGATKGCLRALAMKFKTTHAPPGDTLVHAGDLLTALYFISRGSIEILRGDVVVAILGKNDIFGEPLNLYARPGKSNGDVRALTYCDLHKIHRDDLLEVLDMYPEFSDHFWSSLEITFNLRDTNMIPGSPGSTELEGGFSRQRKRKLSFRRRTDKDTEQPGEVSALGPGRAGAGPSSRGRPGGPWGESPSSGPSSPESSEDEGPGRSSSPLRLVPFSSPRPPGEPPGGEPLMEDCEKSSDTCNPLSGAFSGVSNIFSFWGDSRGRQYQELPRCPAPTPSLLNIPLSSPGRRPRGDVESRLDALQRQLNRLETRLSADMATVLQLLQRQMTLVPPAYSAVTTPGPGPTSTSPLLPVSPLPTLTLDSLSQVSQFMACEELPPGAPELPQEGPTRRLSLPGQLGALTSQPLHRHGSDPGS
T2 sequence (P10635 whole entry): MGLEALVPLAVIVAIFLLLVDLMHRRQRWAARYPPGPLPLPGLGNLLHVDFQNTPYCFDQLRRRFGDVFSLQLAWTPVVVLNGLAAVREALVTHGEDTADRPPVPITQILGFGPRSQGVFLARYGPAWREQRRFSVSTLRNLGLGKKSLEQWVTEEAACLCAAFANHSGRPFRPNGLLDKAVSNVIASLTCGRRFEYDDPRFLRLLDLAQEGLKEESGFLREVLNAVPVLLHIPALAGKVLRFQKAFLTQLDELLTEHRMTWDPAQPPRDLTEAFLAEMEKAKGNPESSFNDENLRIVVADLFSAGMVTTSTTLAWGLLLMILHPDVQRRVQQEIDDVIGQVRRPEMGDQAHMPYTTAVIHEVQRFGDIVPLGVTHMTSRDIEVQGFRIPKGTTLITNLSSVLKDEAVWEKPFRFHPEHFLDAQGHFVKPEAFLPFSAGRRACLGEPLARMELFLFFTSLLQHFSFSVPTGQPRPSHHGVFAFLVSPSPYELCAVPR

**Q.** Which “percentage of cells with 4N DNA (in words)” value ([1]; 4 hours after irradiation) does the source give for `COc1ccc([C@H](C)NC(=O)[C@@H]2C[C@@H](O)CN2C(=O)CNC(=O)c2ccc3cc(F)ccc3n2)c(Cl)c1` [CAM833, N-(2-((2S,4R)-2-(((S)-1-(2-chloro-4-methoxyphenyl)ethyl)carbamoyl)-4-hydroxypyrrolidin-1-yl)-2-oxoethyl)-6-fluoroquinoline-2-carboxamide] here?
**A.** The value was “causes an increase”.

**Q.** And the “percentage of cells in the apoptotic subG1 fraction, peak” value ([1]; at 48 hours)?
**A.** Its value is 15%.

**Q.** And the EC50 (PANC1)?
**A.** Its EC50 is 96 µM.

**Q.** What about the “permeability (in words)” value (Caco-2) of the same compound?
**A.** Its value is “moderate”.

**Q.** And the efflux ratio (Caco-2 permeability)?
**A.** Its efflux ratio is 195.

**Q.** And the Papp A→B (Caco-2 permeability; A to B, read-out: Caco-2 permeability AtoB Papp)?
**A.** Its Papp A→B is 0.23 ×10⁻⁶ cm/s.

**Q.** And the IC50 (CYP450 3A4; 3A4 midazolam site)?
**A.** Its IC50 is > 25 µM.

**Q.** And the IC50 (CYP450 3A4; 3A4 testosterone site)?
**A.** Its IC50 is > 25 µM.

**Q.** What about the half-life [2] of the same compound?
**A.** Its half-life is 43.1 min.

**Q.** And the microsomal CLint [2]?
**A.** Its microsomal CLint is 32.2 ± 2.99 µL/min/mg.

**Q.** And the EC50 (HFL-1)?
**A.** Its EC50 is 98.8 µM.

**Q.** And the EC50 (T24/83)?
**A.** The EC50 was 96.7 µM.

**Q.** What about the “Inhibition of hERG tail-currents” value (hERG) of the same compound?
**A.** The value was 12%.

**Q.** What about the EC50 (Calu3) of the same compound?
**A.** The EC50 was 83.3 µM.

**Q.** And the half-life [3]?
**A.** The half-life was 76.8 min.

**Q.** And the microsomal CLint [3]?
**A.** Its microsomal CLint is 18 ± 4.52 µL/min/mg.

**Q.** What about the EC50 (SCaBER) of the same compound?
**A.** The EC50 was 47 µM.

**Q.** And the IC50 (CYP450 2D6)?
**A.** Its IC50 is > 25 µM.

**Q.** And the EC50 (U87)?
**A.** The EC50 was 109 µM.

**Q.** And the EC50 (U20S)?
**A.** Its EC50 is 40.5 µM.

**Q.** And the EC50 (LN229)?
**A.** Its EC50 is 117 µM.

**Q.** What about the EC50 (BT20) of the same compound?
**A.** Its EC50 is 61.9 µM.

**Q.** What about the EC50 (A549) of the same compound?
**A.** The EC50 was 39 µM.

**Q.** And the EC50 (HL-60)?
**A.** The EC50 was 87.7 µM.

**Q.** What about the EC50 (SW756) of the same compound?
**A.** The EC50 was 124 µM.

**Q.** And the EC50 (Mia-pa-ca2)?
**A.** Its EC50 is 68.6 µM.

**Q.** And the EC50 (NCI-H209)?
**A.** Its EC50 is 69.3 µM.
